In patent US20240041886A1, “METHODS FOR TREATING SPINOCEREBELLAR ATAXIA TYPE 3” (PTC Therapeutics, Inc., priority 2021, published 2024):
Like-named read-outs stand apart in the source and are kept apart here.

Assays:
[1] = tested on: Endogenous Total ATXN3 (tATXN3) Protein; experiment: Endogenous Total ATXN3 (tATXN3) Protein Assay (MSD); assay type: cell-based; conditions: for IC50: average IC50, total ATXN3 protein in cell lysate after 48 h, 7-point concentration curve
Experimental: Meso Scale Discovery (MSD) 96-well or 384-well plates were coated overnight at 4° C. with Ataxin 3 mouse monoclonal antibody (Invitrogen, MA3-082) at a concentration of 0.5 μg/mL in PBS (30 μL per well). Plates were then washed three times with 300 μL wash buffer (0.05% TWEEN®-20, polyethylene glycol sorbitan monolaurate, in PBS) and blocked (Meso Scale Diagnostics, R93BA-1; 5% BSA in PBS) for 2 h at RT with rotational shaking and then washed three times with wash buffer.
(§1) Test compounds were serially diluted 3.16-fold in 100% DMSO to generate a 7-point concentration curve. Aliquots of 0.5 μL of diluted compounds were transferred to a 96-well flat bottom plate by a liquid handler. An aliquot of 0.5 μL DMSO was also transferred to separate wells and used as controls. Duplicate samples were set up for each compound concentration and for the DMSO control.
Cells were thawed and incubated in cell culture media (DMEM, 10% FBS, and 1% antibiotic cocktail) for 72 h. Cells were trypsinized, counted, and re-suspended to a concentration of 100,000 cells/mL in cell culture media. A 100 μL aliquot of the cell suspensions were plated at 10,000 cells per well in the compound containing 96 well microtiter plate and incubated for in a cell culture incubator (37° C., 5% CO2, 100% relative humidity). After 48 h, the medium was removed and 50-100 μL of lysis buffer (Meso Scale Diagnostics, R60TX-2) containing 1× halt protease inhibitor cocktail of (Thermo Scientific, Halt™ Protease Inhibitor Cocktail, 78430) per well was added to cells to provide a “cell lysate”. The plate was placed on a shaker at 4° C. for 30 minutes, then stored at −80° C.
Cell lysate samples (25 μL) were transferred to the antibody-coated MSD plate and incubated overnight at 4° C. After removal of the lysates, the plate was washed three times with wash buffer, and 25 μL of Ataxin 3 recombinant rabbit monoclonal antibody (Invitrogen, #702788) secondary antibody (diluted to 0.25 μg/mL in 0.05% TWEEN®-20 in blocking buffer) was added to each well and incubated with shaking for 1-2 h at room temperature. Following incubation with the secondary antibody, the wells were rinsed with wash buffer and then […] Anti Rabbit Antibody Goat SULFO-TAG Labeled (Meso Scale Diagnostics, R32AB-1) detecting antibody (diluted to 0.25 μg/mL in 0.05% TWEEN®-20 in blocking buffer) was added to each well and incubated with shaking for 1 h at room temperature. After rinsing three times with wash buffer, 150 μL of Read Buffer T with surfactant (tris-based buffer containing tripropylamine, Meso Scale Diagnostics, R92TC-1) were added to each empty well, and the plate was imaged on a SI 6000 imager (MSD) according to manufacturers' instructions provided for 96- or 384-well plates.

ATXN3 Pre-mRNA = experiment: RT-qPCR Assay to Quantify Exon 4 Skipping in ATXN3 Pre-mRNA in Cells; assay type: cell-based; conditions: for IC50: percent exon 4 skipping by RT-qPCR after 24 h, 7-point concentration curve
Experimental: as §1
Cells were thawed and incubated in cell culture media (DMEM, 10% FBS, and 1% antibiotic cocktail) for 72 h. Cells were trypsinized, counted, and re-suspended to a concentration of 100,000 cells/mL in cell culture media. A 100 μL aliquot of the cell suspensions were plated at 10,000 cells per well in the compound containing 96 well microtiter plate and incubated for in a cell culture incubator (37° C., 5% CO2, 100% relative humidity).
After 24 h, media was aspirated from the cells and 50 μL of the RCL2 lysis buffer (10 mM Tris-HCL pH 7.4, 150 mM NaCl, 0.33% IGEPAL® CA-630) was added to each well and incubated at RT for 1 min. Chilled nuclease free water (50 μL per well) was added and the plates were immediately transferred on ice. After 1 min on ice, plates were frozen at −80° C. overnight.
Preparation of RT-qPCR Reaction Mixture:
An aliquot of 2 μL/well of the cell lysates was transferred using the liquid handler to the Armadillo 384-Well PCR plate containing 8 μL/well of the RT-qPCR reaction mixture that was prepared as detailed above. The plates were then sealed with MicroAmp™ Optical Adhesive Film followed by spinning down for 1 min and placed in the CFX384 thermocycler (BioRad).
The RT-qPCR was carried out at the following temperatures for the indicated time: • Step 1:48° C. (30 min) • Step 2: 95° C. (10 min) • Step 3: 95° C. (15 sec) • Step 4: 60° C. (1 min); then, repeated Steps 3 and 4 for a total of 40 cycles.
The percent exon 4 skipping was calculated for each dose of compound treatment using Equations 1 and 2.
Data were fit to a dose response curve and the IC50 was interpolated using XLfit® statistical and curve fitting package.
An IC50 value between >2.0 μM and ≤3.0 μM is indicated by one star (*). […] IC50 value between >0.5 μM and ≤1.0 μM is indicated by four stars (****). An IC50 value≤0.5 μM is indicated by five stars (*****).

Compound	IC50 ([1]; read-out: IC50) [nM]	IC50 (ATXN3 Pre-mRNA; read-out: IC50) [nM]	also measured
Clc1nc(NCc2ccncc2)c2cc[nH]c2n1 [Comparison Compound 1, 2-chloro-N-(pyridin-4-ylmethyl)-7H-pyrrolo[2,3-d]pyrimidin-4-amine, reference compound]			ATXN3 Protein IC50 ([1]; tested according to the assay of Example 1): inactive; ATXN3 mRNA IC50 (ATXN3 Pre-mRNA; tested according to the assay of Example 2): inactive
C[C@H](N)Cc1[nH]c2nc(Cl)nc(NCc3ccco3)c2c1F [Cpd 10, 6-[(2S)-2-aminopropyl]-2-chloro-5-fluoro-N-[(furan-2-yl)methyl]-7H-pyrrolo[2,3-d]pyrimidin-4-amine]	≤ 500	≤ 500	
CNCCc1[nH]c2nc(Cl)nc(NCc3ccco3)c2c1Cl [Cpd 17, 2,5-dichloro-N-[(furan-2-yl)methyl]-6-[2-(methylamino)ethyl]-7H-pyrrolo[2,3-d]pyrimidin-4-amine]	1000 to 1500	1500 to 2000	
C[C@H](N)Cc1c(Cl)c2c(NCc3ccco3)nc(Cl)nc2n1C [Cpd 23, 6-[(2S)-2-aminopropyl]-2,5-dichloro-N-[(furan-2-yl)methyl]-7-methyl-7H-pyrrolo[2,3-d]pyrimidin-4-amine]	500 to 1000	500 to 1000	
C[C@H](N)Cc1c(F)c2c(NCc3ccco3)nc(Cl)nc2n1C [Cpd 24, 6-[(2S)-2-aminopropyl]-2-chloro-5-fluoro-N-[(furan-2-yl)methyl]-7-methyl-7H-pyrrolo[2,3-d]pyrimidin-4-amine]	500 to 1000	1000 to 1500	
Cc1c(C[C@H](C)N)n(C)c2nc(Cl)nc(NCc3ccco3)c12 [Cpd 35, 6-[(2S)-2-aminopropyl]-2-chloro-N-[(furan-2-yl)methyl]-5,7-dimethyl-7H-pyrrolo[2,3-d]pyrimidin-4-amine]	≤ 500	≤ 500	
C[C@H](N)Cc1c(F)c2c(NCc3nccs3)nc(Cl)nc2n1C [Cpd 38, 6-[(2S)-2-aminopropyl]-2-chloro-5-fluoro-7-methyl-N-[(1,3-thiazol-2-yl)methyl]-7H-pyrrolo[2,3-d]pyrimidin-4-amine]	1000 to 1500	1000 to 1500	
C[C@H](N)Cc1c(F)c2c(NCc3ccncc3F)nc(Cl)nc2n1C [Cpd 41, 6-[(2S)-2-aminopropyl]-2-chloro-5-fluoro-N-[(3-fluoropyridin-4-yl)methyl]-7-methyl-7H-pyrrolo[2,3-d]pyrimidin-4-amine]	1000 to 1500	2000 to 3000	
C[C@H](N)Cc1c(F)c2c(NCc3ccncc3)nc(Cl)nc2n1C [Cpd 43, 6-[(2S)-2-aminopropyl]-2-chloro-5-fluoro-7-methyl-N-[(pyridin-4-yl)methyl]-7H-pyrrolo[2,3-d]pyrimidin-4-amine]	1500 to 2000	2000 to 3000	
C[C@H](N)Cc1c(F)c2c(NCc3cncs3)nc(Cl)nc2n1C [Cpd 48, 6-[(2S)-2-aminopropyl]-2-chloro-5-fluoro-7-methyl-N-[(1,3-thiazol-5-yl)methyl]-7H-pyrrolo[2,3-d]pyrimidin-4-amine]			IC50 [1]: inactive; IC50 (ATXN3 Pre-mRNA): inactive
C[C@H](N)Cc1c(F)c2c(NCc3cccs3)nc(Cl)nc2n1C [Cpd 49, 6-[(2S)-2-aminopropyl]-2-chloro-5-fluoro-7-methyl-N-[(thiophen-2-yl)methyl]-7H-pyrrolo[2,3-d]pyrimidin-4-amine]	1000 to 1500	500 to 1000	
C[C@H](N)Cc1c(F)c2c(NCc3ccccn3)nc(Cl)nc2n1C [Cpd 55, 6-[(2S)-2-aminopropyl]-2-chloro-5-fluoro-7-methyl-N-[(pyridin-2-yl)methyl]-7H-pyrrolo[2,3-d]pyrimidin-4-amine]			IC50 [1]: inactive; IC50 (ATXN3 Pre-mRNA): inactive
C[C@H](N)Cc1c(F)c2c(NCc3cccnc3)nc(Cl)nc2n1C [Cpd 57, 6-[(2S)-2-aminopropyl]-2-chloro-5-fluoro-7-methyl-N-[(pyridin-3-yl)methyl]-7H-pyrrolo[2,3-d]pyrimidin-4-amine]			IC50 [1]: inactive; IC50 (ATXN3 Pre-mRNA): inactive
